Counter-ions that a name gives are not always drawn. Like-named read-outs stand apart in the source and are kept apart here.
Tested on: THP-1 cells
Test: THP-1 Soluble Protein Assay (LPS-stimulated; ELISA of TNF-a, TNF-R p75/80, TNF-R p55/60, IL-8)
Type: cell-based, human
Settings: Homo sapiens
[1] = THP-1, 3 µM, read-out: THP % Inhibition @ 3µM
[2] = THP-1, read-out: THP % inhibition @ 3 µM, 3 µM

Protocol: Each vial of cells are cultured for about two weeks prior to being used for an assay and then are used for only 4 to 6 weeks to screen compounds.
Plates are placed into an incubator set at 5% CO2 and at 37° C. After 4 hours of incubation, 300 ml/well of tissue culture supernatant (TCS) is removed for use in an TNF-a ELISA.
Percent change in each soluble protein evaluated from the "vehicle positive control" was calculated for each compound concentration with the following formula: % Change =(pg/ml (compound) - pg/ml (veh pos control))/(pg/ml (veh pos control) - pg/ml (veh neg control))x 100 [formula]
For the soluble protein (TNF-a, p75/80, p55/60, IL-8) studies under stimulated conditions, the mean pg/ml of duplicate wells were determined and the results expressed as percent change from "vehicle positive control".

SMILES | inhibition at 3 µM [2] [%] | other results
CC#CCOc1ccc(S(=O)(=O)N2CCCSC(C)(C)[C@@H]2C(=O)NO)cc1 [Example 173] | – | inhibition at 3 µM [1]: 80%
CC#CCOc1ccc(S(=O)(=O)N2C[C@H](CC(N)=O)SC(C)(C)[C@@H]2C(=O)NO)cc1 [Example 280, (3S,6S)-6-(2-Amino-2-oxoethyl)-4-{[4-(2-butynyloxy)phenyl]sulfonyl}-N-hydroxy-2,2-dimethyl-3-thiomorpholinecarboxamide] | – | inhibition at 3 µM [1]: 91%
CC#CCOc1ccc(S(=O)(=O)NC(C(=O)NO)c2ccc(OCCN(C)C(=O)OC(C)(C)C)cc2)cc1 (stereo not shown) [Example 203, tert-Butyl 4-(2-{4-[1-({[4-{2-butynyloxy)phenyl]sulfonyl}amino)-2-(hydroxyamino)-2-oxoethyl)phenoxy]ethyl)-(methyl)carbamate] | 73 | –
CC1(C)SCCN(S(=O)(=O)c2ccc(OCC#CCO)cc2)[C@H]1C(=O)NO [Example 260, (3S)-N-Hydroxy-4-({4-[(4-hydroxy-2-butynyl)oxy]phenyl}sulfonyl)-2,2-dimethyl-3-thiomorpholine carboxamide] | – | inhibition at 3 µM (THP-1, read-out: THP % inhibition @ 3 µM): 95%
CC1(C)SCCN(S(=O)(=O)c2ccc(OCC#CCCCCN)cc2)[C@H]1C(=O)NO [Example 253, (3S)-4-({4-[(7-Amino-2-heptynyl)oxy]phenyl}sulfonyl)-N-hydroxy-2,2-dimethyl-3-thiomorpholine carboxamide] | 37 | –
C#CCOc1ccc(C(NS(=O)(=O)c2ccc(OCC#CC)cc2)C(=O)NO)cc1 (stereo not shown) [Example 177, 2-({[4-(2-Butynyloxy)phenyl]sulfonyl}amino)-N-hydroxy-2-[4-(2-propynyloxy)phenyl]acetamide] | 64 | –
CC(=O)OCCCCC#CCOc1ccc(S(=O)(=O)N2CCSC(C)(C)[C@@H]2C(=O)NO)cc1 [Example 268, 7-[4-({(3S)-3-[(Hydroxyamino)carbonyl]-2,2-dimethylthiomorpholinyl}sulfonyl)phenoxy]-5-heptynyl acetate] | 76 | –
CC(C)(C)OC(=O)NCCC#CCOc1ccc(S(=O)(=O)N2CCSC(C)(C)C2C(=O)NO)cc1 (stereo not shown) [Example 245, tert-Butyl 5-[4-({3-[(hydroxyamino)carbonyl]-2,2-dimethyl-4-thiomorpholinyl}sulfonyl)phenoxy]-3-pentynylcarbamate] | 37 | –
CC#CCOc1ccc(S(=O)(=O)N2CSC(C)(C)[C@@H]2C(=O)NO)cc1 [Example 286, (4S)-3-{(4-(2-Butynyloxy)phenyl]sulfonyl}-N-hydroxy-5,5-dimethyl-1,3-thiazolidine-4-carboxamide] | – | inhibition at 3 µM [1]: 73%
CC#CCOc1ccc(S(=O)(=O)N(C)CC(=O)NO)cn1 [Example 131, 2-[(6-But-2-ynyloxy-pyridine-3-sulfonyl)-methyl-amino]-N-hydroxy-acetamide] | 18 | –
CC#CCOc1ccc(S(=O)(=O)N(C)C(C(=O)NO)c2ccc(Cl)cc2)cc1 (stereo not shown) [Example 212, 2-[{[4-(2-Butynyloxy)phenyl]sulfonyl}(methyl)amino]-2-(4-chlorophenyl)-N-hydroxyacetamide] | 86 | –
CC#CCOc1ccc(S(=O)(=O)N(C)C(C(=O)NO)C(C)(C)SCCN2CCCC2)cc1 (stereo not shown) [Example 143, 2-({[4-(2-Butynyloxy)phenyl]sulfonyl)(methyl)amino]-N-hydroxy-3-methyl-3-{[2(1-pyrrolidinyl)ethyl]sulfanyl}butanamide] | 86 | –
CC1(C)SCCN(S(=O)(=O)c2ccc(OCC#CCCN)cc2)C1C(=O)NO (stereo not shown) [Example 246, 4-({4-[(5-Amino-2-pentynyl)oxy]phenyl}sulfonyl)-N-hydroxy-2,2-dimethyl-3-thiomorpholine carboxamide] | 4 | –
C#CC#CCOc1ccc(S(=O)(=O)N2CCSC(C)(C)[C@@H]2C(=O)NO)cc1 [Example 263, (3S)-N-Hydroxy-2,2-dimethyl-4-{[4-(2,4-pentadiynyloxy)phenyl]sulfonyl}-3-thiomorpholine carboxamide] | 88 | –
CC#CCOc1ccc(S(=O)(=O)N2CCN(Cc3ccc(Br)cc3)CC2C(=O)NO)cc1 (stereo not shown) [Example 233, 4-(4-Bromo-benzyl)-1-(4-but-2-ynyloxy-benzenesulfonyl)-piperazine-2-carboxylic acid hydroxyamide] | 33 | –
CC#CCOc1ccc(S(=O)(=O)N(CCN2CCOCC2)CC(=O)NO)cc1 [Example 124, 2-[{[4-(But-2-ynyloxy)phenyl]sulfonyl}(2-morpholin-4-ylethyl)amino]-N-hydroxyacetamide hydrochloride] | 24 | –
CC#CCOc1ccc(S(=O)(=O)NC(C(=O)NO)c2ccc(OCCN3CCN(C(=O)OC(C)(C)C)CC3)cc2)cc1 (stereo not shown) [Example 202, tert-Butyl 4-(2-{4-[1-({[4-(2-butynyloxy)phenyl]sulfonyl}amino)-2-(hydroxyamino)-2-oxoethyl)phenoxy]ethyl)-1-piperazinecarboxylate] | 45 | –

SMILES | inhibition at 3 µM [2] [%] | other results
CC#CCOc1ccc(S(=O)(=O)N2C[C@@H](CNC(=O)OC(C)(C)C)SC(C)(C)[C@@H]2C(=O)NO)cc1 [Example 273, tert-Butyl{(2R,5S)-4-{[4-(2-butynyloxy)phenyl]sulfonyl}-5-[(hydroxyamino)carbonyl]-6,6-dimethylthiomorpholinyl}methylcarbamate] | – | inhibition at 3 µM [1]: 90%
CC#CCOc1ccc(S(=O)(=O)N(C)C(C(=O)NO)c2ccc(OCCNC)cc2)cc1 (stereo not shown) [Example 192, 2-({[4-(2-Butynyloxy)phenyl]sulfonyl}(methyl)amino)-N-hydroxy-2-{4-[2-(methylamino)ethoxy]phenyl}acetamide] | 95 | –
CC#CCOc1ccc(S(=O)(=O)N(C)C(C(=O)NO)c2ccc(OC)cc2)cc1 (stereo not shown) [Example 178, 2-[{[4-(2-Butynyloxy)phenyl]sulfonyl}(methyl)amino]-N-hydroxy-2-(4-methoxyphenyl)acetamide] | 91 | –
CC#CCOc1ccc(S(=O)(=O)N(C)C(C(=O)NO)c2ccc(OCCCNC(=O)OCCCC)cc2)cc1 (stereo not shown) [Example 195, Butyl 3-{4-[1-[{[4-(2-butynyloxy)phenyl]sulfonyl}(methyl)amino]-2-(hydroxyamino)-2-oxoethyl]phenoxy}propylcarbamate] | 90 | –
CC#CCOc1ccc(S(=O)(=O)N2CCN(C(=O)CNC(=O)OC(C)(C)C)CC2C(=O)NO)cc1 (stereo not shown) [Example 229, {2-[4-(4-But-2-ynyloxy-bemenesulfonyl)-3-hydroxycarbamoyl-piperazin-1-yl]-2-oxo-ethyl}-carbamic acid tert-butyl ester] | 85 | –
CC#CCOc1ccc(S(=O)(=O)N2CCN(C(=O)N(CC)CC)CC2C(=O)NO)cc1 (stereo not shown) [Example 216, 4-(4-But-2-ynyloxy-benzenesulfonyl)-piperazine-1,3-dicarboxylic acid 1-diethylamide 3-hydroxyamide] | 59 | –
C#CCOc1ccc(S(=O)(=O)N2CCSC(C)(C)[C@@H]2C(=O)NO)cc1 [Example 258, (3S)-N-Hydroxy-2,2-dimethyl-4-{[4-(2-propynyloxy)phenyl]sulfonyl}-3-thiomorpholine carboxamide] | 91 | –
CC#CCOc1ccc(S(=O)(=O)N2CCN(C(=O)OC(C)(C)C)CC2C(=O)NO)cc1 (stereo not shown) [Example 58, 4-(4-But-2-ynyloxy-benzenesulfonyl)-3-hydroxycarbamoyl-piperazine-1-carboxylic acid tert-butyl ester] | 79 | –
CC#CCOc1ccc(S(=O)(=O)N2CCN(C(=O)N3CCCC3)CC2C(=O)NO)cc1 (stereo not shown) [Example 217, 1-(4-But-2-ynyloxy-benzenesulfonyl)-4-(pyrrolidine-1-carbonyl)-piperazine-2-carboxylic acid hydroxyamide] | 73 | –
CC#CCOc1ccc(S(=O)(=O)N(CC#CCN2CCN(C)CC2)C(C)C(=O)NO)cc1 (stereo not shown) [Example 135, 2-{[[4-(2-butynyloxy)phenyl]sulfonyl][4-(4-methyl-1-piperazinyl)-2-butynylamino]}-N-hydroxypropanamide] | 76 | –
CC#CCOc1ccc(S(=O)(=O)N(C)C(C(=O)NO)C(C)(C)SCCCN2CCN(C)CC2)cc1 (stereo not shown) [Example 147, 2-({[4-(2-Butynyloxy)phenyl]sulfonyl)(methyl)amino]-N-hydroxy-3-methyl-3-{[2(4-methyl-1-ethyl-1-piperazinyl)propyl]sulfanyl}butanamide] | 89 | –
CC#CCOc1ccc(S(=O)(=O)N2C=CSC(C)(C)[C@@H]2C(=O)NO)cc1 [Example 379, (3S)-4-{[4-(2-Butynyloxy)phenyl]sulfonyl}-N-hydroxy-2,2-dimethyl-3,4-dihydro-2H-1,4-thiazine-3-carboxamide] | – | inhibition at 3 µM [1]: 85%
CC1(C)SCCN(S(=O)(=O)c2ccc(OCC#CCCCOC3CCCCO3)cc2)C1C(=O)NO (stereo not shown) [Example 248, N-Hydroxy-2,2-dimethyl-4-[(4-{[6-(tetrahydro-2H-pyran-2-yloxy)-2-hexynyl]oxy}phenyl)sulfonyl]-3-thiomorpholine carboxamide] | 21 | –
CN(CC#CCOc1ccc(S(=O)(=O)N2CCSC(C)(C)C2C(=O)NO)cc1)C(=O)OC(C)(C)C (stereo not shown) [Example 267, tert-butyl 4-[4-({3-[(hydroxyamino)carbonyl]-2,2-dimethyl-4-thiomorpholinyl}sulfonyl)phenoxy]-2-butynyl(methyl)carbamate] | 15 | –
CC#CCOc1ccc(S(=O)(=O)NC(C(=O)NO)c2ccc(OCCc3scnc3C)cc2)cc1 (stereo not shown) [Example 208, 2-({[4-(2-Butynyloxy)phenyl]sulfonyl}amino)-N-hydroxy-2-{4-[2-(4-methyl-1,3-thiazol-5-yl)ethoxy]phenyl}acetamide] | 74 | –
CC#CCOc1ccc(S(=O)(=O)N2CCN(C(=O)OC)CC2C(=O)NO)cc1 (stereo not shown) [Example 228, 4-(4-But-2-ynyloxy-benzenesulfonyl)-3-hydroxycarbamoyl-piperazine-1-carboxylic acid methyl ester] | 81 | –
CC1(C)SCCN(S(=O)(=O)c2ccc(OCC#CCCCCO)cc2)[C@H]1C(=O)NO [Example 269, (3S)-N-Hydroxy-4-({4-[(7-hydroxy-2-heptynyl)oxy]phenyl}sulfonyl)-2,2-dimethyl-3-thiomorpholinecarboxamide] | 77 | –

— patent EP1144368B1, “ACETYLENIC ALPHA-AMINO ACID-BASED SULFONAMIDE HYDROXAMIC ACID TACE INHIBITORS” (priority 1999, dated 2000)
